# Assays:
# cat GLP-1R = assay: Agonistic activity on GLP-1R of different species (LANCE Ultra cAMP assay): cat; format: cell-based; details: ratio of EC50 value of other species to human EC50 value
# Protocol: CHO-K1 cells were seeded in a 6-well plate at 0.6×10^6 cells/well and incubated overnight in an incubator at a temperature of 37 °C and a carbon dioxide concentration of 5%. The next day, CHO-K1 cell media were replaced. Then two tubes A and B were prepared for each plasmid. 100 µL Opti-MEM was added to tube A, then 4 µL Lipofectamine™ 3000 was added and mixed uniformly. 100 µL Opti-MEM was firstly added to tube B, then 2 µg of one of the plasmids (human GLP-1R-pcDNA5 (+) plasmid, cat GLP-1R-pcDNA5 (+) plasmid, human GIPR-pcDNA5 (+) plasmid, cat GIPR-pcDNA5 (+) plasmid) was added and mixed uniformly, and 4 µL P3000™ was added to tube B and mixed uniformly (the ratio of plasmid to transfection reagent was 1 µg: 2 µL). The diluted solution in tube A was added to the diluted solution in tube B, mixed evenly, and incubated at room temperature for 15 minutes. […]
# 18-20 hours after transfection, human GLP-1R-CHO, cat GLP-1R-CHO, human GIPR-CHO, cat GIPR-CHO cells were resuspended in 1×Casein Stimulation Buffer (HBSS, 5 mM HEPES, 0.5 mM IBMX, 0.1% casein, pH7.4), and seeded into a 384-well cell culture plate at 9 µL/well (cell numbers being 2000, 2000, 1000, 2000 cells/well, respectively). […] The readings at 665 nm and 620 nm were determined with a 330 nm excitation light on a microplate reader. The 665 nm/620 nm reading ratio was calculated. […]
# rat GLP-1R = biological target: T1, rat GLP-1R (Rattus norvegicus, UniProt P32301); assay: Agonistic activity on GLP-1R of different species (LANCE Ultra cAMP assay): rat; format: cell-based; details: ratio of EC50 value of other species to human EC50 value
# T1 construct: expressed in transfected cells
# T1 sequence (P32301 22-463): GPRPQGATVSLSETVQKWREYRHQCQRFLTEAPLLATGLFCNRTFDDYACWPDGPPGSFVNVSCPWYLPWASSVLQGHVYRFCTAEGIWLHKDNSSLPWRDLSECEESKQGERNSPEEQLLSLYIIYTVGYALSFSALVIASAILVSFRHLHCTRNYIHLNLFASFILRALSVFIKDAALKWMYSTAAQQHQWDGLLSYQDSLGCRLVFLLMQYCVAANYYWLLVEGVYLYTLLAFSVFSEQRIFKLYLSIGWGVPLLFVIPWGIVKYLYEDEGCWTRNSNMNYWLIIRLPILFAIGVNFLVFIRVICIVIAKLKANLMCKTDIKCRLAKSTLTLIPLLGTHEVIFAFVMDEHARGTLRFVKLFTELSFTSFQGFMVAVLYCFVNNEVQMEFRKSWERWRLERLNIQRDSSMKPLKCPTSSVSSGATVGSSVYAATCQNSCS
# mouse GIPR = biological target: T2, mouse GIPR (Mus musculus, UniProt Q0P543); assay: Agonistic activity on GIPR of different species (LANCE Ultra cAMP assay): mouse; format: cell-based; details: ratio of EC50 value of other species to human EC50 value
# T2 construct: expressed in transfected cells; host or cells: CHO-K1 (transient)
# T2 sequence (Q0P543 19-460): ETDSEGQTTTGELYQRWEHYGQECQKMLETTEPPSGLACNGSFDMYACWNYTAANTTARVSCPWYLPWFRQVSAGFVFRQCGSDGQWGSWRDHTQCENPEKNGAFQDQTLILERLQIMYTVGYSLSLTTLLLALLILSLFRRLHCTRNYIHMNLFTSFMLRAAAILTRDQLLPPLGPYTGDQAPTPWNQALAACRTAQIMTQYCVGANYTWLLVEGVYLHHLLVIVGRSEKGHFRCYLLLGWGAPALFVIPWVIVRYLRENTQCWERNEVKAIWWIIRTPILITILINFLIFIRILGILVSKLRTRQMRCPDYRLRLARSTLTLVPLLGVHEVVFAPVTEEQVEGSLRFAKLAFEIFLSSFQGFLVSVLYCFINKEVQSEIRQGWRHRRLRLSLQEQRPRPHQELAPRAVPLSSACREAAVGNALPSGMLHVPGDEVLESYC
# obese cats = assay: Weight loss efficacy in obese cats; format: in vivo; details: s.c. QW escalating doses
# Protocol: This study evaluated the weight loss efficacy of the compound of this invention through multiple subcutaneous administrations to obese cats, with changes in cat body weights being monitored. The study involved cats aged 8 months or older with a body condition score (BCS) of ≥6. […] G11 (control group), G12, G13, and […]. . Group G11 served as the vehicle control group. […] The animals' body weights were measured at a fixed time every 7 days after administration, and food intake was measured once per day. Blood tests for routine and biochemical parameters were conducted before grouping and on […]. Body condition score (BCS), feline body mass index (FBMI), and abdominal circumference (AC) were measured once a week. The data were statistically analyzed using ANOVA. If ANOVA yielded statistical significance (p < 0.05) and the variances were homogeneous, Tukey's test was used for intergroup comparisons. If the variances were heterogeneous, Dunnett's T3 test was used. Results are presented as means and standard errors of the mean (Mean ± SEM). The significance level was set at 0.05, and both statistical and biological significance were considered in the analysis.
structure (smiles),measurement,setting,value
CC[C@H](C)[C@H](NC(=O)C(C)(C)NC(=O)[C@H](Cc1ccc(O)cc1)NC(=O)[C@H](CC(=O)O)NC(=O)[C@H](CO)NC(=O)[C@@H](NC(=O)C(C)(Cc1ccccc1)NC(=O)[C@@H](NC(=O)CNC(=O)[C@H](CCC(=O)O)NC(=O)C(C)(C)NC(=O)[C@@H](N)Cc1ccc(O)cc1)[C@@H](C)O)[C@@H](C)O)C(=O)NC(C)(C)C(=O)N[C@@H](CC(C)C)C(=O)N[C@@H](CC(=O)O)C(=O)N[C@@H](CCCCN)C(=O)N[C@@H](CCC(N)=O)C(=O)N[C@@H](C)C(=O)N[C@@H](CCC(N)=O)C(=O)N[C@@H](C)C(=O)N[C@@H](CCC(=O)O)C(=O)N[C@@H](Cc1ccccc1)C(=O)N[C@H](C(=O)N[C@@H](CCCCNC(=O)COCCOCCNC(=O)COCCOCCNC(=O)COCCOCCNC(=O)CC[C@H](NC(=O)CCCCCCCCCCCCCCCCCCCCC(=O)O)C(=O)O)C(=O)N[C@@H](Cc1c[nH]c2ccccc12)C(=O)N[C@@H](CC(C)C)C(=O)N[C@@H](CC(C)C)C(=O)N[C@@H](CCCCN)C(=O)NCC(=O)NCC(=O)N1CCC[C@H]1C(=O)N[C@@H](CO)C(=O)N[C@@H](CO)C(=O)NCC(=O)N[C@@H](C)C(=O)N1CCC[C@H]1C(=O)N1CCC[C@H]1C(=O)N1CCC[C@H]1C(=O)N[C@@H](CO)C(=O)N[C@@H](CCCCN)C(N)=O)C(C)C (stereo partly drawn) [Compound P016],GLP-1R EC50 ratio,cat GLP-1R,2.98
same,GLP-1R EC50 ratio,rat GLP-1R,1.59
same,GIPR EC50 ratio,mouse GIPR,12.49
same,effective dose for weight loss,obese cats,96 nmol/kg
same,effective dose for weight loss,obese cats; equivalent of the nmol/kg dose,0.5 mg/kg
same,maximum weight loss,obese cats; five administrations,19.45%
